Measured values: paper PMC5171807, “Five colour variants of bright luminescent protein for real-time multicolour bioimaging” (Nature Communications, 2016)

Target: T1, green eNL (GeNL) (Oplophorus gracilirostris, UniProt Q9GV45, A31E/Q38R/Q45L/L54V/A60N/K70R/V71I/A81I/F95D/L99Q/M102K/I117V/P142E/Q151K/Y165I/N193R)
T1 construct: single-chain fusion: C-terminally truncated mNeonGreen - two-residue linker - NanoLuc (N-terminal deletion 4); N-terminal His tag; E. coli; with mNeonGreen
Test: luminescence initial velocity (first […] s), Michaelis-Menten fit
Format: biochemical
Settings: 10 pM enzyme; furimazine 0.025-13 μM

T1 sequence (Q9GV45 30-196 with the stated changes): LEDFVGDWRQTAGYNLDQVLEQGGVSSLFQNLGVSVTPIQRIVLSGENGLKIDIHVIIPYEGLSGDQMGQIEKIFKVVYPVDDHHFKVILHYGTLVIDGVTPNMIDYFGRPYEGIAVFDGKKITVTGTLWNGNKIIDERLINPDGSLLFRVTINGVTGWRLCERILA

For `O=c1c(Cc2ccco2)nc2c(Cc3ccccc3)[nH]c(-c3ccccc3)cn1-2` [furimazine], which Km is on record?
The Km was “enzymatic parameters (Km and kcat) of the eNLs and Nluc”.
